# Entries after “also recorded” stand apart in the source; their conditions may differ. Read-outs that look alike come from different tables or passages of the source.
# Legend:
# [1] = target: T1, Human KOR (Homo sapiens, UniProt P41145); assay: cell-based; conditions: for Emax: read-out: Emax in parentheses, Human KOR
# T1 construct: expressed in transfected cells; host or cells: HEK-293T
# [2] = target: T2, Human MOR (Homo sapiens, UniProt P35372); assay: cell-based
# T2 construct: expressed in transfected cells; host or cells: HEK-293T
# [3] = target: T3, Human DOR (Homo sapiens, UniProt P41143); assay: cell-based
# T3 construct: expressed in transfected cells; host or cells: HEK-293T
# [4] = target: T1, Human KOR; assay: BRET functional assay, inhibition of reference agonist U-50,488 (antagonist mode), human KOR; format: cell-based
# [5] = EC50 at indicated opioid receptor, Human KOR
# [6] = EC50 at indicated opioid receptor, Human MOR
# [7] = EC50 at indicated opioid receptor, Human DOR
# [8] = EC50, induced BRET signal, Human KOR
# [9] = EC50, induced BRET signal, Human MOR
# [10] = EC50, induced BRET signal, Human DOR
# [11] = read-out: EC50 at indicated opioid receptor, Human DOR
# T1 sequence (P41145 whole entry): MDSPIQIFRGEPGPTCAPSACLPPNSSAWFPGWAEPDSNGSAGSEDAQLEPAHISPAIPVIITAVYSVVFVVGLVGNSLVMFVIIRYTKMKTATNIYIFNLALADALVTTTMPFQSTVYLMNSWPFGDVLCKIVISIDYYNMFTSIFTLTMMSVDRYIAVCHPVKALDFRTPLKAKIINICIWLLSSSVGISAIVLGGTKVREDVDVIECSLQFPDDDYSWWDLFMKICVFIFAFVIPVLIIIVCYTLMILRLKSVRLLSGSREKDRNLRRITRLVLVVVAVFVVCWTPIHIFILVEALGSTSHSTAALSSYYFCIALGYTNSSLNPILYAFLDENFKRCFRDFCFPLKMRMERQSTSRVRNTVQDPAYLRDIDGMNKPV
# T3 sequence (P41143 whole entry): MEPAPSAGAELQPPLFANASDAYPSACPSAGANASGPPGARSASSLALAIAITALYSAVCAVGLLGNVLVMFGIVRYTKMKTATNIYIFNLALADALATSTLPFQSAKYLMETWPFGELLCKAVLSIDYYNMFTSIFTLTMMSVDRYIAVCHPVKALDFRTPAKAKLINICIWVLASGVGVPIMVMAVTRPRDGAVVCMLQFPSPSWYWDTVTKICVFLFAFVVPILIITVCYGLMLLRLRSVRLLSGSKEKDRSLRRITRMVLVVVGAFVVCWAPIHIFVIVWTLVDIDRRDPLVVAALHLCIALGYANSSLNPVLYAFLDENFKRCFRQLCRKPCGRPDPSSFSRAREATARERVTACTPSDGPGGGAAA
# T2 sequence (P35372 whole entry): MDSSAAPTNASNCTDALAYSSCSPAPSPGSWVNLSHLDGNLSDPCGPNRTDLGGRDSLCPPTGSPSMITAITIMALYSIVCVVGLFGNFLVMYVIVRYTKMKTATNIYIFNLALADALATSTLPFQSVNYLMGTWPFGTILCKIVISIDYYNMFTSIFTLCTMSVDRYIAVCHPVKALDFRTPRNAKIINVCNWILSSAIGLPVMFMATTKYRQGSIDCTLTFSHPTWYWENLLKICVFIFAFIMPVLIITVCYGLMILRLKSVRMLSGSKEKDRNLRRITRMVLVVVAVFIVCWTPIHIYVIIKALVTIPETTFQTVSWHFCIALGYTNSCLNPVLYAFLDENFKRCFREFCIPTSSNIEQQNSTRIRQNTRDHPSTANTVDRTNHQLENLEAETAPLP
SMILES,"EC50 [1, 5] [µM]","EC50 [2, 6] [µM]","EC50 [3, 7] [µM]",other results
CCC1CC2CC3c4oc5cc(F)c(O)cc5c4CCN(C2)C13 (stereo not drawn) [Compound 35k],< 10,< 10,< 10,–
CCC1CC2CC3c4sc5ccc(O)cc5c4CCN(C2)C13 (stereo not drawn) [Compound 35n],< 10,< 10,> 100,–
CCC1CC2CC3c4oc5ccc(O)cc5c4C[C@@H](C)N(C2)C13 (stereo partly drawn) [α-endo-52e],–,–,> 100,"Emax [1]: 26%; Emax ([2]; read-out: Emax in parentheses, Human MOR): 24%"
CCC1CC2CC3c4oc5c(O)cccc5c4CCN(C2)C13 (stereo not drawn) [Compound 52a],> 10,> 100,> 100,–
CCC1CC2CC3c4oc5cccc(OC)c5c4CCN(C2)C13 (stereo not drawn) [Compound 51b],–,–,–,"EC50 ([1]; EC50, Human KOR): > 10 µM; EC50 ([2]; EC50, Human MOR): > 10 µM; EC50 ([3]; EC50, Human DOR): > 100 µM"
CCC1CC2CC3c4oc5cc(F)c(OC)cc5c4CCN(C2)C13 (stereo not drawn) [Compound 34l],> 10,> 100,> 100,–
"CCC1CC2(C)CC3c4oc5ccc(O)cc5c4CCN(C2)C13 (single isomer, unassigned) [Compound 60b]",–,–,–,"EC50 ([1]; read-out: EC50, Human KOR): < 10 µM; EC50 ([2]; read-out: EC50, Human MOR): < 10 µM; EC50 ([3]; EC50, Human DOR): < 10 µM"
CC1C2CCC3C(C2)c2oc4ccc(O)cc4c2CCN13 (stereo not drawn) [Compound 60d],–,–,–,"EC50 ([1]; EC50, Human KOR): < 10 µM; EC50 ([2]; EC50, Human MOR): < 10 µM; EC50 ([3]; EC50, Human DOR): > 100 µM"
Oc1ccc2oc3c(c2c1)CCN1CC2CC(Cc4ccccc4)C1C3C2 (stereo not drawn) [Compound 60h],–,–,–,"EC50 ([1]; EC50, Human KOR): > 10 µM; EC50 ([2]; EC50, Human MOR): > 10 µM; EC50 ([3]; EC50, Human DOR): > 10 µM"
COc1ccc2oc3c(c2c1)CCN1CC2CC(c4ccccc4)C1C3C2 (stereo not drawn) [Compound 34n],> 10,> 100,> 100,–
CCC1CC2CC3c4oc5ccc(F)cc5c4CCN(C2)C13 (stereo not drawn) [Compound 34j],> 10,> 10,> 100,–
CCC1CC2CC3c4oc5ccc(O)cc5c4CCN(C2)C13 (stereo not drawn) [Compound 35a],< 10,< 10,< 10,"agonist activity at KOR (in words) [1]: full agonist; EC50 [1, 8]: 0.66 ± 0.13 µM; agonist activity at MOR (in words) [2]: full agonist; EC50 [2, 9]: 0.98 ± 0.14 µM; agonist activity at DOR (in words) [3]: full agonist; EC50 [3, 10]: 4.5 ± 1.2 µM"
"CCC1CC2CC3c4oc5ccc(O)cc5c4C[C@H](C)N(C2)C13 (single isomer, unassigned) [α-exo-52f]",–,–,> 100,"EC50 with Emax in parentheses [1]: 0.14 μM ± 0.006 (72%); EC50 (μM) with Emax in parentheses, Human MOR [2]: 0.48 μM ± 0.20 (50%)"
Oc1ccc2oc3c(c2c1)CCN1CC2CC(c4ccccc4)C1C3C2 (stereo not drawn) [Compound 35m],> 100,< 10,< 10,–
CCCCC1CC2CC3c4oc5ccc(O)cc5c4CCN(C2)C13 (stereo not drawn) [Compound 35h],< 10,< 10,< 10,–
CCCC1CC2CC3c4oc5ccc(O)cc5c4CCN(C2)C13 (stereo not drawn) [Compound 35c],< 10,< 10,< 10,–
Oc1ccc2oc3c(c2c1)CCN1CC2CCC1C3C2 (stereo not drawn) [Compound 35e],< 10,< 10,> 100,–
CCC1CC2CC3c4oc5cc(C)c(O)cc5c4CCN(C2)C13 (stereo not drawn) [Compound 52c],> 10,> 10,> 10,–
CCC1CC2CC3c4oc5cc(O)ccc5c4CCN(C2)C13 (stereo not drawn) [Compound 35f],< 10,< 10,> 10,–
Oc1ccc2oc3c(c2c1)CCN1CC2CC(c4ccccc4)C1C3C2 (stereo not drawn) [Compound 35l],> 10,> 10,> 10,–
CCCC1CC2CC3c4oc5ccc(OC)cc5c4CCN(C2)C13 (stereo not drawn) [Compound 34f],> 10,> 100,–,"EC50 [3, 11]: > 100 µM"
COCC1CC2CC3c4oc5ccc(OC)cc5c4CCN(C2)C13 (stereo not drawn) [Compound 59g],–,–,–,"EC50 ([1]; EC50, Human KOR): < 10 µM; EC50 ([2]; EC50, Human MOR): > 100 µM; EC50 ([3]; EC50, Human DOR): > 100 µM"
"CCC1CC2CC3c4sc5ccccc5c4CCN(C2)C13 (stereo not drawn) [Compound 34q, 7-ethyl-6,6a,7,8,9,10,12,13-octahydro-6,9-methanobenzo[4,5] thieno[2,3-d]pyrido[1,2-a]azepine]",> 10,> 100,> 100,–

SMILES,"EC50 [1, 5] [µM]","EC50 [2, 6] [µM]","EC50 [3, 7] [µM]",other results
CCC1CC2CC3c4oc5ccc(O)cc5c4C[C@@H](CC)N(C2)C13 (stereo partly drawn) [α-endo-52g],> 100,> 100,> 100,agonist activity at KOR (in words) [1]: not active as agonist; also recorded: no agonist activity; agonist activity at MOR (in words) [2]: not active as agonist; agonist activity at DOR (in words) [3]: not active as agonist; IC50 [4]: 8.2 ± 0.5 µM; antagonist activity at KOR (in words) [4]: KOR antagonist
OCC1CC2CC3c4oc5ccc(O)cc5c4CCN(C2)C13 (stereo not drawn) [Compound 60g],–,–,–,"EC50 ([1]; EC50, Human KOR): < 10 µM; EC50 ([2]; EC50, Human MOR): > 10 µM; EC50 ([3]; EC50, Human DOR): > 10 µM"
CCCC1CC2CC3c4oc5ccc(O)cc5c4CCN(C2)C13 (stereo not drawn) [Compound 35d],–,–,–,"agonist activity at KOR (in words) [1]: agonist activity; EC50 [1, 8]: 0.297 ± 0.03 µM; agonist activity at MOR (in words) [2]: agonist activity; EC50 [2, 9]: 0.922 ± 0.282 µM; agonist activity at DOR (in words) [3]: agonist activity; EC50 [3, 10]: 5.7 ± 5.1 µM"
CCC1CC2CC3c4sc5ccc(OC)cc5c4CCN(C2)C13 (stereo not drawn) [Compound 34r],> 10,> 10,> 100,–
"CCC1CC2CC3c4oc5ccc(OC)cc5c4CCN(C2)C13 (single isomer, unassigned) [Compound 34c]",–,> 10,–,"EC50 ([1]; read-out: EC50 at indicated opioid receptor, Human KOR): > 10 µM; EC50 [3, 11]: > 100 µM"
"CCC1CC2CC3c4oc5ccc(O)cc5c4C[C@H](C)N(C2)C13 (single isomer, unassigned) [α-exo-52e]",–,–,–,"Emax [1]: 88%; EC50 (μM) with Emax in parentheses, Human MOR [2]: 0.40 μM ± 0.056 (98%); Emax ([3]; read-out: Emax in parentheses, Human DOR): 98%"
CCC1(CC)CC2CC3c4oc5ccc(O)cc5c4C[C@@H](C)N(C2)C31 (stereo partly drawn) [α-endo-52f],–,> 100,> 100,"agonist activity at KOR (in words) [1]: selective KOR agonist; EC50 [1, 8]: 0.12 ± 0.014 µM; Emax [1]: 47%; agonist activity at MOR (in words) [2]: not active as agonist; agonist activity at DOR (in words) [3]: not active as agonist"
COCC1CC2CC3c4oc5ccc(O)cc5c4CCN(C2)C13 (stereo not drawn) [Compound 35i],< 10,< 10,< 10,–
CCCC1CC2CC3c4oc5ccc(OC)cc5c4CCN(C2)C13 (stereo not drawn) [Compound 34e],> 100,> 10,> 100,–
CCCCC1CC2CC3c4oc5ccc(OC)cc5c4CCN(C2)C13 (stereo not drawn) [Compound 34i],> 10,> 10,> 100,–
CC[C@@H]1Cc2c(oc3ccc(O)cc23)C2CC3CCC2N1C3 (stereo partly drawn) [α-endo-60f],–,–,–,"EC50 ([1]; EC50, Human KOR): > 10 µM; EC50 ([2]; EC50, Human MOR): > 100 µM; EC50 ([3]; EC50, Human DOR): > 100 µM"
CCC1CC2CC3c4oc5cccc(O)c5c4CCN(C2)C13 (stereo not drawn) [Compound 52b],> 100,> 10,> 100,–
"CCC1CC2(C)CC3c4oc5ccc(O)cc5c4CCN(C2)C13 (single isomer, unassigned) [Compound 60c]",–,–,–,"EC50 ([1]; EC50, Human KOR): < 10 µM; EC50 ([2]; EC50, Human MOR): < 10 µM; EC50 ([3]; EC50, Human DOR): > 10 µM"
"CCC1CC2CC3c4oc5ccccc5c4CCN(C2)C13 (stereo not drawn) [Compound 34a, 7-ethyl-6,6a,7,8,9,10,12,13-octahydro-6,9-methanobenzofuro[2,3-d] pyrido[1,2-a]azepine]",> 10,> 100,> 100,–
COCC1CC2CC3c4oc5ccc(OC)cc5c4CCN(C2)C13 (stereo not drawn) [Compound 34m],> 10,> 10,> 10,–
CC[C@H]1Cc2c(oc3ccc(O)cc23)C2CC3CCC2N1C3 (stereo partly drawn) [α-exo-60f],–,–,–,"EC50 ([1]; EC50, Human KOR): < 10 µM; EC50 ([2]; EC50, Human MOR): < 10 µM; EC50 ([3]; EC50, Human DOR): < 10 µM"
COc1ccc2oc3c(c2c1)CCN1CC2CCC1C3C2 (stereo not drawn) [Compound 34h],> 10,> 100,> 100,–
"CCC1CC2CC3c4oc5ccc(OC)cc5c4CCN(C2)C13 (single isomer, unassigned) [Compound 34d]",> 10,> 100,> 100,–
Oc1ccc2oc3c(c2c1)CCN1CC2CC(Cc4ccccc4)C1C3C2 (stereo not drawn) [Compound 35g],< 10,< 10,< 10,–
CCC1CC2CC3c4oc5cc(OC)ccc5c4CCN(C2)C13 (stereo not drawn) [Compound 34k],< 10,< 10,> 10,–
CCC1CC2CC3c4oc5cc(C)c(OC)cc5c4CCN(C2)C13 (stereo not drawn) [Compound 51c],–,–,–,"EC50 ([1]; EC50, Human KOR): > 10 µM; EC50 ([2]; EC50, Human MOR): > 10 µM; EC50 ([3]; EC50, Human DOR): > 10 µM"
OCC1CC2CC3c4oc5ccc(O)cc5c4CCN(C2)C13 (stereo not drawn) [Compound 35j],< 10,< 10,< 10,–

# Reference: patent US11840541B2 (priority 2014, dated 2023)
